In PMC9533837 (Antiviral Research, 2003):
Converted amounts (≈) assume the structure as drawn. Like-named read-outs stand apart in the source and are kept apart here.

Tests used:
[1] = tested on: VAR-BSH (1975 Bangladesh isolate of VAR major); test: organism not typed; type: cell-based, variola major; settings: for IC50: Vero
[2] = tested on: VAR-YAM (1946 Japan Yamada isolate of VAR major); test: organism not typed; type: cell-based, variola major; settings: for IC50: Vero
[3] = tested on: VAR-YAM (1946 Japan Yamada isolate of VAR major); test: organism not typed; type: cell-based, variola major; settings: for IC50: LLC-MK2, read-out: IC50 VAR-YAM LLC-MK2
[4] = tested on: VAR-GAR (1966 Brazil Garcia isolate of VAR minor); test: organism not typed; type: cell-based, variola minor; settings: for IC50: Vero
[5] = tested on: VAR-GAR (1966 Brazil Garcia isolate of VAR minor); test: organism not typed; type: cell-based, variola minor; settings: for IC50: LLC-MK2, read-out: IC50 VAR-GAR LLC-MK2
[6] = tested on: MPX Zaire (V79-1-005-Scab); test: organism not typed; type: cell-based, monkeypox; settings: for IC50: Vero
[7] = tested on: MPX Zaire (V79-1-005-Scab); test: organism not typed; type: cell-based, monkeypox; settings: for IC50: LLC-MK2, read-out: IC50 MPX LLC-MK2
CPX Brighton [8] = test: organism not typed; type: cell-based, cowpox; settings: for IC50: Vero
CPX Brighton [9] = test: organism not typed; type: cell-based, cowpox; settings: for IC50: LLC-MK2, read-out: IC50 CPX LLC-MK2
VAC Copenhagen [10] = test: microbe, parasite or virus in culture; type: cell-based, vaccinia virus; settings: for IC50: Orthopoxvirus vaccinia, Vero, read-out: IC50 VAC Vero
VAC Copenhagen [11] = test: microbe, parasite or virus in culture; type: cell-based, vaccinia virus; settings: for IC50: Orthopoxvirus vaccinia, LLC-MK2, read-out: IC50 VAC LLC-MK2
VAR isolate Butler = test: organism not typed; type: cell-based, variola minor; settings: Vero, read-out: IC50, VAR isolate Butler
VAR isolate V68-59 = test: organism not typed; type: cell-based, variola minor; settings: Vero, read-out: IC50, VAR isolate V68-59
VAR isolate 102 = test: organism not typed; type: cell-based, variola; settings: Vero, read-out: IC50, VAR isolate 102
VAR isolate 7124 = test: organism not typed; type: cell-based, variola; settings: Vero, read-out: IC50, VAR isolate 7124
VAR isolate 7125 = test: organism not typed; type: cell-based, variola; settings: Vero, read-out: IC50, VAR isolate 7125
VAR isolate Harper = test: organism not typed; type: cell-based, variola; settings: Vero, read-out: IC50, VAR isolate Harper
VAR isolate Heidelberg = test: organism not typed; type: cell-based, variola; settings: Vero, read-out: IC50, VAR isolate Heidelberg
VAR isolate Higgins = test: organism not typed; type: cell-based, variola; settings: Vero, read-out: IC50, VAR isolate Higgins
VAR isolate Hinden = test: organism not typed; type: cell-based, variola; settings: Vero, read-out: IC50, VAR isolate Hinden
VAR isolate Iran 2602 = test: organism not typed; type: cell-based, variola; settings: Vero, read-out: IC50, VAR isolate Iran 2602
VAR isolate K1629 = test: organism not typed; type: cell-based, variola; settings: Vero, read-out: IC50, VAR isolate K1629
VAR isolate Jee = test: organism not typed; type: cell-based, variola; settings: Vero, read-out: IC50, VAR isolate Jee
VAR isolate Rafig Lahore = test: organism not typed; type: cell-based, variola; settings: Vero, read-out: IC50, VAR isolate Rafig Lahore
VAR isolate Shahzaman = test: organism not typed; type: cell-based, variola; settings: Vero, read-out: IC50, VAR isolate Shahzaman
VAR isolate Somalia = test: organism not typed; type: cell-based, variola; settings: Vero, read-out: IC50, VAR isolate Somalia
VAR isolate V70-46 = test: organism not typed; type: cell-based, variola; settings: Vero, read-out: IC50, VAR isolate V70-46
VAR isolate V70-222 = test: organism not typed; type: cell-based, variola; settings: Vero, read-out: IC50, VAR isolate V70-222
VAR isolate V73-175 = test: organism not typed; type: cell-based, variola; settings: Vero, read-out: IC50, VAR isolate V73-175
VAR isolate V73-225 = test: organism not typed; type: cell-based, variola; settings: Vero, read-out: IC50, VAR isolate V73-225
VAR isolate V74-227 = test: organism not typed; type: cell-based, variola; settings: Vero, read-out: IC50, VAR isolate V74-227
VAR isolate V77-1605 = test: organism not typed; type: cell-based, variola; settings: Vero, read-out: IC50, VAR isolate V77-1605
all VAR isolates tested = test: organism not typed; type: cell-based, variola; settings: Vero, read-out: IC50, VAR mean
[12] = tested on: orthopoxviruses (VAR-BSH, VAR-YAM, VAR-GAR, MPX, CPX, VAC); test: organism not typed; type: cell-based
Vero cells = settings: African green monkey
LLC-MK2 cells = settings: rhesus monkey
CPX = settings: cited from earlier work
[13] = read-out: IC50, VAR isolate Bangladesh
[14] = read-out: IC50, VAR isolate Yamada
[15] = read-out: IC50, VAR isolate Garcia

Structure (SMILES): Nc1ccn(C[C@@H](CO)OCP(=O)(O)O)c(=O)n1 [Cidofovir, 1-[(S)-3-hydroxy-2-(phosphonomethoxy)-propyl]cytosine]
- Therapeutic index (TI) VAR-BSH Vero [1]: 10.5
- IC50 ([1]; 120 h, read-out: apparent IC50): 10.9 µg/mL (≈ 39 µM)
- IC50 [1, 13]: 17 µg/mL (≈ 60.9 µM)
- IC50 ([1]; read-out: IC50 VAR-BSH Vero): 9.5 µg/mL (≈ 34 µM)
- Therapeutic index (TI) VAR-YAM Vero [2]: 8.3
- IC50 [2, 14]: 13 µg/mL (≈ 46.6 µM)
- IC50 ([2]; read-out: IC50 VAR-YAM Vero): 12.1 µg/mL (≈ 43.3 µM)
- Therapeutic index (TI) VAR-YAM LLC-MK2 [3]: 37.0
- IC50 [3]: 2.7 µg/mL (≈ 9.67 µM)
- Therapeutic index (TI) VAR-GAR Vero [4]: 22.2
- IC50 [4, 15]: 7 µg/mL (≈ 25.1 µM)
- IC50 ([4]; read-out: IC50 VAR-GAR Vero): 4.5 µg/mL (≈ 16.1 µM)
- Therapeutic index (TI) VAR-GAR LLC-MK2 [5]: 40.0
- IC50 [5]: 2.5 µg/mL (≈ 8.95 µM)
- Therapeutic index (TI) MPX Vero [6]: 14.9
- IC50 ([6]; read-out: IC50, MPX): 11 µg/mL (≈ 39.4 µM)
- IC50 ([6]; read-out: IC50 MPX Vero): 6.7 µg/mL (≈ 24 µM)
- Therapeutic index (TI) MPX LLC-MK2 [7]: 27.0
- IC50 [7]: 3.7 µg/mL (≈ 13.3 µM)
- Therapeutic index (TI) CPX Vero (CPX Brighton [8]): 13.3
- IC50 (CPX Brighton [8]; read-out: IC50, CPX): 13 µg/mL (≈ 46.6 µM)
- IC50 (CPX Brighton [8]; read-out: IC50 CPX Vero): 7.5 µg/mL (≈ 26.9 µM)
- Therapeutic index (TI) CPX LLC-MK2 (CPX Brighton [9]): 83.3
- IC50 (CPX Brighton [9]): 1.2 µg/mL (≈ 4.3 µM)
- Therapeutic index (TI) VAC Vero (VAC Copenhagen [10]): 12.3
- IC50 (VAC Copenhagen [10]): 8.1 µg/mL (≈ 29 µM)
- Therapeutic index (TI) VAC LLC-MK2 (VAC Copenhagen [11]): 23.3
- IC50 (VAC Copenhagen [11]): 4.3 µg/mL (≈ 15.4 µM)
- IC50 (VAR isolate Butler): 6 µg/mL (≈ 21.5 µM)
- IC50 (VAR isolate V68-59): 13 µg/mL (≈ 46.6 µM)
- IC50 (VAR isolate 102): 23 µg/mL (≈ 82.4 µM)
- IC50 (VAR isolate 7124): 20 µg/mL (≈ 71.6 µM)
- IC50 (VAR isolate 7125): 12 µg/mL (≈ 43 µM)
- IC50 (VAR isolate Harper): 28 µg/mL (≈ 100 µM)
- IC50 (VAR isolate Heidelberg): 15 µg/mL (≈ 53.7 µM)
- IC50 (VAR isolate Higgins): 14 µg/mL (≈ 50.1 µM)
- IC50 (VAR isolate Hinden): 10 µg/mL (≈ 35.8 µM)
- IC50 (VAR isolate Iran 2602): 8 µg/mL (≈ 28.7 µM)
- IC50 (VAR isolate K1629): 17 µg/mL (≈ 60.9 µM)
- IC50 (VAR isolate Jee): 10 µg/mL (≈ 35.8 µM)
- IC50 (VAR isolate Rafig Lahore): 12 µg/mL (≈ 43 µM)
- IC50 (VAR isolate Shahzaman): 11 µg/mL (≈ 39.4 µM)
- IC50 (VAR isolate Somalia): 7 µg/mL (≈ 25.1 µM)
- IC50 (VAR isolate V70-46): 7 µg/mL (≈ 25.1 µM)
- IC50 (VAR isolate V70-222): 12 µg/mL (≈ 43 µM)
- IC50 (VAR isolate V73-175): 12 µg/mL (≈ 43 µM)
- IC50 (VAR isolate V73-225): 5 µg/mL (≈ 17.9 µM)
- IC50 (VAR isolate V74-227): 10 µg/mL (≈ 35.8 µM)
- IC50 (VAR isolate V77-1605): 19 µg/mL (≈ 68.1 µM)
- IC50 (all VAR isolates tested): 12 ± 1 µg/mL (≈ 43 µM)
- TI against the panel of viruses [12]: 18.2
- IC50 ([12]; read-out: mean IC50 against the panel of viruses): 5.5 ± 0.95 µg/mL (≈ 19.7 µM)
- Cytotoxicity TC50 Vero (Vero cells): >100 µg/mL
- Cytotoxicity TC50 LLC-MK2 (LLC-MK2 cells): >100 µg/mL
- activity in vivo, CPX mouse model (CPX): active in vivo

Structure (SMILES): NC(=O)c1ncn([C@@H]2O[C@H](CO)[C@@H](O)[C@H]2O)n1 [Ribavirin]
- Therapeutic index (TI) VAR-BSH Vero [1]: 5.4
- IC50 [1, 13]: 30 µg/mL (≈ 123 µM)
- IC50 ([1]; read-out: IC50 VAR-BSH Vero): 18.4 µg/mL (≈ 75.3 µM)
- Therapeutic index (TI) VAR-YAM Vero [2]: 6.3
- IC50 [2, 14]: 40 µg/mL (≈ 164 µM)
- IC50 ([2]; read-out: IC50 VAR-YAM Vero): 15.8 µg/mL (≈ 64.7 µM)
- Therapeutic index (TI) VAR-YAM LLC-MK2 [3]: 29.4
- IC50 [3]: 3.4 µg/mL (≈ 13.9 µM)
- Therapeutic index (TI) VAR-GAR Vero [4]: 5.9
- IC50 [4, 15]: 39 µg/mL (≈ 160 µM)
- IC50 ([4]; read-out: IC50 VAR-GAR Vero): 17 µg/mL (≈ 69.6 µM)
- Therapeutic index (TI) VAR-GAR LLC-MK2 [5]: 27.8
- IC50 [5]: 3.6 µg/mL (≈ 14.7 µM)
- Therapeutic index (TI) MPX Vero [6]: 16.9
- IC50 ([6]; read-out: IC50, MPX): 11 µg/mL (≈ 45 µM)
- IC50 ([6]; read-out: IC50 MPX Vero): 5.9 µg/mL (≈ 24.2 µM)
- Therapeutic index (TI) MPX LLC-MK2 [7]: 24.4
- IC50 [7]: 4.1 µg/mL (≈ 16.8 µM)
- Therapeutic index (TI) CPX Vero (CPX Brighton [8]): 3.3
- IC50 (CPX Brighton [8]; read-out: IC50, CPX): > 300 µg/mL
- IC50 (CPX Brighton [8]; read-out: IC50 CPX Vero): 30.6 µg/mL (≈ 125 µM)
- Therapeutic index (TI) CPX LLC-MK2 (CPX Brighton [9]): 9.4
- IC50 (CPX Brighton [9]): 10.6 µg/mL (≈ 43.4 µM)
- Therapeutic index (TI) VAC Vero (VAC Copenhagen [10]): 1.0
- IC50 (VAC Copenhagen [10]): > 100 µg/mL
- Therapeutic index (TI) VAC LLC-MK2 (VAC Copenhagen [11]): 4.2
- IC50 (VAC Copenhagen [11]): 23.9 µg/mL (≈ 97.9 µM)
- IC50 (VAR isolate Butler): 28 µg/mL (≈ 115 µM)
- IC50 (VAR isolate V68-59): 41 µg/mL (≈ 168 µM)
- IC50 (VAR isolate 102): 110 µg/mL (≈ 450 µM)
- IC50 (VAR isolate 7124): 36 µg/mL (≈ 147 µM)
- IC50 (VAR isolate 7125): 37 µg/mL (≈ 152 µM)
- IC50 (VAR isolate Harper): 40 µg/mL (≈ 164 µM)
- IC50 (VAR isolate Heidelberg): 43 µg/mL (≈ 176 µM)
- IC50 (VAR isolate Higgins): 48 µg/mL (≈ 197 µM)
- IC50 (VAR isolate Hinden): 33 µg/mL (≈ 135 µM)
- IC50 (VAR isolate Iran 2602): 11 µg/mL (≈ 45 µM)
- IC50 (VAR isolate K1629): 24 µg/mL (≈ 98.3 µM)
- IC50 (VAR isolate Jee): 47 µg/mL (≈ 192 µM)
- IC50 (VAR isolate Rafig Lahore): 30 µg/mL (≈ 123 µM)
- IC50 (VAR isolate Shahzaman): 15 µg/mL (≈ 61.4 µM)
- IC50 (VAR isolate Somalia): 84 µg/mL (≈ 344 µM)
- IC50 (VAR isolate V70-46): 45 µg/mL (≈ 184 µM)
- IC50 (VAR isolate V70-222): 221 µg/mL (≈ 905 µM)
- IC50 (VAR isolate V73-175): 17 µg/mL (≈ 69.6 µM)
- IC50 (VAR isolate V73-225): 26 µg/mL (≈ 106 µM)
- IC50 (VAR isolate V74-227): 54 µg/mL (≈ 221 µM)
- IC50 (VAR isolate V77-1605): 453 µg/mL (≈ 1850 µM)
- IC50 (all VAR isolates tested): 50 ± 8 µg/mL (≈ 205 µM)
- IC50 ([12]; LLC-MK2, read-out: mean IC50 on LLC-MK2 cells): 8 ± 3.4 µg/mL (≈ 32.8 µM)
- IC50 ([12]; Vero, read-out: mean IC50 on Vero cells): 31.3 ± 14.1 µg/mL (≈ 128 µM)
- Cytotoxicity TC50 Vero (Vero cells): >100 µg/mL
- Cytotoxicity TC50 LLC-MK2 (LLC-MK2 cells): >100 µg/mL
- protection of CPX-infected mice (CPX; mouse, in vivo): can protect CPX-infected mice
